Values joined by “and” are separate entries in the source; they are usually repeats but may differ in a detail not shown here. Equal entries are not always repeated.
Tested on: Coronavirus (hCoV-229E)
Test: Inactivation efficiency against coronavirus hCoV-229E strain (residual TCID50 on Huh-7 cells)
Format: cell-based
Settings: for CPE test (virus replication in cell wells): wells 1-10; for average inactivation efficiency against virus: three experiments

## O=C(O[C@@H]1Cc2c(O)cc(O)cc2O[C@@H]1c1cc(O)c(O)c(O)c1)c1cc(O)c(O)c(O)c1 [EGCG, Epigallocatechin gallate]
0.2 mM EGCG + hCoV-229E virus, co-incubated 1 minute, first experiment, dilution factor 10^1
  CPE test (virus replication in cell wells): +
0.2 mM EGCG + hCoV-229E virus, co-incubated 1 minute, first experiment, dilution factor 10^2
  CPE test (virus replication in cell wells): +
0.2 mM EGCG + hCoV-229E virus, co-incubated 1 minute, first experiment, dilution factor 10^3
  CPE test (virus replication in cell wells): +
0.2 mM EGCG + hCoV-229E virus, co-incubated 1 minute, first experiment, dilution factor 10^4
  CPE test (virus replication in cell wells): +
0.2 mM EGCG + hCoV-229E virus, co-incubated 1 minute, first experiment, dilution factor 10^5
  CPE test (virus replication in cell wells): − and +
0.2 mM EGCG + hCoV-229E virus, co-incubated 1 minute, first experiment, dilution factor 10^6
  CPE test (virus replication in cell wells): −
0.2 mM EGCG + hCoV-229E virus, co-incubated 1 minute, first experiment, dilution factor 10^7
  CPE test (virus replication in cell wells): −
0.2 mM EGCG + hCoV-229E virus, co-incubated 1 minute, first experiment, dilution factor 10^8
  CPE test (virus replication in cell wells): −
0.2 mM EGCG + virus, co-incubated 5 minute, first experiment, dilution factor 10^1, wells 1-10
  CPE test (virus replication in the cell wells): +
0.2 mM EGCG + virus, co-incubated 5 minute, first experiment, dilution factor 10^2, wells 1-10
  CPE test (virus replication in the cell wells): +
0.2 mM EGCG + virus, co-incubated 5 minute, first experiment, dilution factor 10^3, wells 1-10
  CPE test (virus replication in the cell wells): +
0.2 mM EGCG + virus, co-incubated 5 minute, first experiment, dilution factor 10^4, wells 1-10
  CPE test (virus replication in the cell wells): +
0.2 mM EGCG + virus, co-incubated 5 minute, first experiment, dilution factor 10^5, wells 1-10
  CPE test (virus replication in the cell wells): + and −
0.2 mM EGCG + virus, co-incubated 5 minute, first experiment, dilution factor 10^6, wells 1-10
  CPE test (virus replication in the cell wells): + and −
0.2 mM EGCG + virus, co-incubated 5 minute, first experiment, dilution factor 10^7, wells 1-10
  CPE test (virus replication in the cell wells): −
0.2 mM EGCG + virus, co-incubated 5 minute, first experiment, dilution factor 10^8, wells 1-10
  CPE test (virus replication in the cell wells): −
0.2 mM EGCG + virus, co-incubated 5 minute, second experiment, dilution factor 10^1, wells 1-10
  CPE test (virus replication in the cell wells): +
0.2 mM EGCG + virus, co-incubated 5 minute, second experiment, dilution factor 10^2, wells 1-10
  CPE test (virus replication in the cell wells): +
0.2 mM EGCG + virus, co-incubated 5 minute, second experiment, dilution factor 10^3, wells 1-10
  CPE test (virus replication in the cell wells): +
0.2 mM EGCG + virus, co-incubated 5 minute, second experiment, dilution factor 10^4, wells 1-10
  CPE test (virus replication in the cell wells): +
0.2 mM EGCG + virus, co-incubated 5 minute, second experiment, dilution factor 10^5, wells 1-10
  CPE test (virus replication in the cell wells): + and −
0.2 mM EGCG + virus, co-incubated 5 minute, second experiment, dilution factor 10^6, wells 1-10
  CPE test (virus replication in the cell wells): − and +
0.2 mM EGCG + virus, co-incubated 5 minute, second experiment, dilution factor 10^7, wells 1-10
  CPE test (virus replication in the cell wells): −
0.2 mM EGCG + virus, co-incubated 5 minute, second experiment, dilution factor 10^8, wells 1-10
  CPE test (virus replication in the cell wells): −
0.2 mM EGCG + virus, co-incubated 5 minutes, dilution factor 10^1, wells 1-10, third experiment
  CPE test (virus replication in the cell wells): +
0.2 mM EGCG + virus, co-incubated 5 minutes, dilution factor 10^2, wells 1-10, third experiment
  CPE test (virus replication in the cell wells): +
0.2 mM EGCG + virus, co-incubated 5 minutes, dilution factor 10^3, wells 1-10, third experiment
  CPE test (virus replication in the cell wells): +
0.2 mM EGCG + virus, co-incubated 5 minutes, dilution factor 10^4, wells 1-10, third experiment
  CPE test (virus replication in the cell wells): + and −
0.2 mM EGCG + virus, co-incubated 5 minutes, dilution factor 10^5, wells 1-10, third experiment
  CPE test (virus replication in the cell wells): +
0.2 mM EGCG + virus, co-incubated 5 minutes, dilution factor 10^6, wells 1-10, third experiment
  CPE test (virus replication in the cell wells): − and +
0.2 mM EGCG + virus, co-incubated 5 minutes, dilution factor 10^7, wells 1-10, third experiment
  CPE test (virus replication in the cell wells): −
0.2 mM EGCG + virus, co-incubated 5 minutes, dilution factor 10^8, wells 1-10, third experiment
  CPE test (virus replication in the cell wells): −
0.2 mM EGCG + virus, hCoV-229E co-incubated 1 minute, second experiment, dilution factor 10^1
  CPE test (virus replication in cell wells): +
0.2 mM EGCG + virus, hCoV-229E co-incubated 1 minute, second experiment, dilution factor 10^2
  CPE test (virus replication in cell wells): +
0.2 mM EGCG + virus, hCoV-229E co-incubated 1 minute, second experiment, dilution factor 10^3
  CPE test (virus replication in cell wells): +
0.2 mM EGCG + virus, hCoV-229E co-incubated 1 minute, second experiment, dilution factor 10^4
  CPE test (virus replication in cell wells): +
0.2 mM EGCG + virus, hCoV-229E co-incubated 1 minute, second experiment, dilution factor 10^5
  CPE test (virus replication in cell wells): + and −
0.2 mM EGCG + virus, hCoV-229E co-incubated 1 minute, second experiment, dilution factor 10^6
  CPE test (virus replication in cell wells): −
0.2 mM EGCG + virus, hCoV-229E co-incubated 1 minute, second experiment, dilution factor 10^7
  CPE test (virus replication in cell wells): −
0.2 mM EGCG + virus, hCoV-229E co-incubated 1 minute, second experiment, dilution factor 10^8
  CPE test (virus replication in cell wells): −
0.2 mM EGCG + virus, hCoV-229E co-incubated 1 minute, third experiment, dilution factor 10^1
  CPE test (virus replication in cell wells): +
0.2 mM EGCG + virus, hCoV-229E co-incubated 1 minute, third experiment, dilution factor 10^2
  CPE test (virus replication in cell wells): +
0.2 mM EGCG + virus, hCoV-229E co-incubated 1 minute, third experiment, dilution factor 10^3
  CPE test (virus replication in cell wells): +
0.2 mM EGCG + virus, hCoV-229E co-incubated 1 minute, third experiment, dilution factor 10^4
  CPE test (virus replication in cell wells): +
0.2 mM EGCG + virus, hCoV-229E co-incubated 1 minute, third experiment, dilution factor 10^5
  CPE test (virus replication in cell wells): − and +
0.2 mM EGCG + virus, hCoV-229E co-incubated 1 minute, third experiment, dilution factor 10^6
  CPE test (virus replication in cell wells): + and −
0.2 mM EGCG + virus, hCoV-229E co-incubated 1 minute, third experiment, dilution factor 10^7
  CPE test (virus replication in cell wells): −
0.2 mM EGCG + virus, hCoV-229E co-incubated 1 minute, third experiment, dilution factor 10^8
  CPE test (virus replication in cell wells): −
0.2 mM EGCG, hCoV-229E virus, 1 minute, single experiment
  inactivation efficiency against the virus: 36.90% and 20.57%
0.2 mM EGCG, hCoV-229E virus, 1 minute
  average inactivation efficiency against virus: 31.46%
0.2 mM EGCG, hCoV-229E virus, 5 minutes
  average inactivation efficiency against virus: 13.71%
1 mM EGCG + hCoV-229E virus, co-incubated 1 minute, first experiment, dilution factor 10^1
  CPE test (virus replication in cell wells): +
1 mM EGCG + hCoV-229E virus, co-incubated 1 minute, first experiment, dilution factor 10^2
  CPE test (virus replication in cell wells): +
1 mM EGCG + hCoV-229E virus, co-incubated 1 minute, first experiment, dilution factor 10^3
  CPE test (virus replication in cell wells): +
1 mM EGCG + hCoV-229E virus, co-incubated 1 minute, first experiment, dilution factor 10^4
  CPE test (virus replication in cell wells): +
1 mM EGCG + hCoV-229E virus, co-incubated 1 minute, first experiment, dilution factor 10^5
  CPE test (virus replication in cell wells): + and −
1 mM EGCG + hCoV-229E virus, co-incubated 1 minute, first experiment, dilution factor 10^6
  CPE test (virus replication in cell wells): −
1 mM EGCG + hCoV-229E virus, co-incubated 1 minute, first experiment, dilution factor 10^7
  CPE test (virus replication in cell wells): −
1 mM EGCG + hCoV-229E virus, co-incubated 1 minute, first experiment, dilution factor 10^8
  CPE test (virus replication in cell wells): −
1 mM EGCG + virus, co-incubated 5 minute, first experiment, dilution factor 10^1, wells 1-10
  CPE test (virus replication in the cell wells): +
1 mM EGCG + virus, co-incubated 5 minute, first experiment, dilution factor 10^2, wells 1-10
  CPE test (virus replication in the cell wells): +
1 mM EGCG + virus, co-incubated 5 minute, first experiment, dilution factor 10^3, wells 1-10
  CPE test (virus replication in the cell wells): +
1 mM EGCG + virus, co-incubated 5 minute, first experiment, dilution factor 10^4, wells 1-10
  CPE test (virus replication in the cell wells): +
1 mM EGCG + virus, co-incubated 5 minute, first experiment, dilution factor 10^5, wells 1-10
  CPE test (virus replication in the cell wells): − and +
1 mM EGCG + virus, co-incubated 5 minute, first experiment, dilution factor 10^6, wells 1-10
  CPE test (virus replication in the cell wells): − and +
1 mM EGCG + virus, co-incubated 5 minute, first experiment, dilution factor 10^7, wells 1-10
  CPE test (virus replication in the cell wells): −
1 mM EGCG + virus, co-incubated 5 minute, first experiment, dilution factor 10^8, wells 1-10
  CPE test (virus replication in the cell wells): −
1 mM EGCG + virus, co-incubated 5 minute, second experiment, dilution factor 10^1, wells 1-10
  CPE test (virus replication in the cell wells): +
1 mM EGCG + virus, co-incubated 5 minute, second experiment, dilution factor 10^2, wells 1-10
  CPE test (virus replication in the cell wells): +
1 mM EGCG + virus, co-incubated 5 minute, second experiment, dilution factor 10^3, wells 1-10
  CPE test (virus replication in the cell wells): +
1 mM EGCG + virus, co-incubated 5 minute, second experiment, dilution factor 10^4, wells 1-10
  CPE test (virus replication in the cell wells): +
1 mM EGCG + virus, co-incubated 5 minute, second experiment, dilution factor 10^5, wells 1-10
  CPE test (virus replication in the cell wells): + and −
1 mM EGCG + virus, co-incubated 5 minute, second experiment, dilution factor 10^6, wells 1-10
  CPE test (virus replication in the cell wells): −
1 mM EGCG + virus, co-incubated 5 minute, second experiment, dilution factor 10^7, wells 1-10
  CPE test (virus replication in the cell wells): −
